US7390806B2, “Antibiotics containing borinic acid complexes and methods of use” (Anacor Pharmaceuticals, Inc., priority 2002, dated 2008)
≈ marks a conversion by molar mass, not a printed value. Where two headings read alike, the source gives them in different places.

Assays:
S. aureus ATCC 29213 = assay: MIC determination, S. aureus ATCC 29213; format: cell-based, Staphylococcus aureus; details: for MIC: Staphylococcus aureus, read-out: MIC S. aureus ATCC 29213
[1] = system: S. epidermidis ATCC 12228; assay: MIC determination, S. epidermidis ATCC 12228; format: cell-based, Staphylococcus epidermidis; details: for MIC: Staphylococcus epidermidis, read-out: MIC S. epidermidis ATCC 12228
S. pneumoniae ATCC 6301 = assay: MIC determination, S. pneumoniae ATCC 6301; format: cell-based, Streptococcus pneumoniae; details: for MIC: Streptococcus pneumoniae; for MIC S. pneumoniae ATCC 6301: Table 1
E. faecalis ATCC 29212 = assay: MIC determination, E. faecalis ATCC 29212; format: cell-based, Enterococcus faecalis; details: for MIC: Enterococcus faecalis, read-out: MIC E. faecalis ATCC 29212
E. faecium CT-26 = assay: MIC determination, E. faecium CT-26; format: cell-based, Enterococcus faecium; details: for MIC: Enterococcus faecium, read-out: MIC E. faecium CT-26
[2] = system: M. catarrhalis ATCC 25238; assay: MIC determination, M. catarrhalis ATCC 25238; format: cell-based; details: for MIC: Moraxella catarrhalis, ATCC25238, Table 1, read-out: MIC M. catarrhalis ATCC 25238; for MIC M. catarrhalis ATCC 25238: Table 1
H. influenzae ATCC 49766 = assay: MIC determination, H. influenzae ATCC 49766; format: cell-based, Haemophilus influenzae; details: Table 2; for MIC: Haemophilus influenzae, ATCC49766
M. tuberculosis H37Rv = assay: Anti-mycobacterium in vitro activity, H37Rv; format: cell-based, Mycobacterium tuberculosis; details: Sensitive strain; for MIC: Mycobacterium tuberculosis, H37RV
[3] = system: Candida glabrata ATCC 15126; assay: Antifungal in vitro MIC, Candida glabrata; format: cell-based; details: Nakaseomyces glabratus, ATCC15126; percent inhibition >= 80%; read-out: MIC Candida glabrata ATCC 15126
[4] = system: Candida parapsilosis ATCC 22019; assay: Antifungal in vitro MIC, Candida parapsilosis; format: cell-based; details: Lodderomyces parapsilosis, ATCC22019; percent inhibition >= 80%; read-out: MIC Candida parapsilosis ATCC 22019
[5] = system: Microsporum canis ATCC 10214; assay: Antifungal in vitro MIC, Microsporum canis; format: cell-based; details: Microsporum canis, ATCC10214; percent inhibition >= 80%; read-out: MIC Microsporum canis ATCC 10214
[6] = system: Aspergillus fumigatus ATCC 204305; assay: Antifungal in vitro MIC, Aspergillus fumigatus; format: cell-based; details: Aspergillus fumigatus, ATCC204305; percent inhibition >= 80%; read-out: MIC Aspergillus fumigatus ATCC 204305
[7] = system: Trichophyton mentagrophytes ATCC 10270; assay: Antifungal in vitro MIC, Trichophyton mentagrophytes; format: cell-based; details: Trichophyton mentagrophytes, ATCC10270; percent inhibition >= 80%; read-out: MIC Trichophyton mentagrophytes ATCC 10270
[8] = ATCC6301, Table 1, read-out: MIC S. pneumoniae ATCC 6301
[9] = ATCC6301, Table 2, read-out: MIC S. pneumonia ATCC 6301

SMILES | MIC S. aureus ATCC 29213 (S. aureus ATCC 29213; Table 1) [micrograms per ml] | MIC S. epidermidis ATCC 12228 ([1]; Table 1) [micrograms per ml] | MIC S. pneumoniae ATCC 6301 (S. pneumoniae ATCC 6301) [micrograms per ml] | MIC E. faecalis ATCC 29212 (E. faecalis ATCC 29212; Table 1) [micrograms per ml] | MIC E. faecium CT-26 (E. faecium CT-26; Table 1) [micrograms per ml] | M. tuberculosis MIC H37Rv (M. tuberculosis H37Rv) [µg/mL] | MIC (M. tuberculosis H37Rv) [µg/mL] | further results
CO/N=C(\C(=O)N[C@@H]1C(=O)N2C(C(=O)O)=C(CSc3nc(=O)c(=O)[nH]n3C)CS[C@H]12)c1csc(N)n1 [Ceftriaxone, reference compound] |  |  |  |  |  |  |  | MIC (S. aureus ATCC 29213; ATCC29213, Table 1): 2 µg/mL (≈ 3.61 µM); MIC (S. aureus ATCC 29213; ATCC29213, Table 2): 2 µg/mL (≈ 3.61 µM); MIC ([1]; ATCC12228, Table 1): 1 µg/mL (≈ 1.8 µM); MIC ([1]; ATCC12228, Table 2): 1 µg/mL (≈ 1.8 µM); MIC (S. pneumoniae ATCC 6301; [8]): 0.125 µg/mL (≈ 0.225 µM); MIC (S. pneumoniae ATCC 6301; [9]): < 0.125 µg/mL; MIC (E. faecalis ATCC 29212; ATCC29212, Table 1): 64 µg/mL (≈ 115 µM); MIC (E. faecalis ATCC 29212; ATCC29212, Table 2): 64 µg/mL (≈ 115 µM); MIC (E. faecium CT-26; CT26, Table 1): 64 µg/mL (≈ 115 µM); MIC (E. faecium CT-26; CT26, Table 2): 64 µg/mL (≈ 115 µM); MIC [2]: 0.125 µg/mL (≈ 0.225 µM); MIC (H. influenzae ATCC 49766): 0.12 µg/mL (≈ 0.216 µM)
Cc1onc(-c2ccccc2Cl)c1C(=O)N[C@@H]1C(=O)N2[C@@H]1SC(C)(C)[C@@H]2C(=O)O [Cloxacillin, reference compound] |  |  |  |  |  |  |  | MIC (S. aureus ATCC 29213; ATCC29213, Table 1): 0.125 µg/mL (≈ 0.287 µM); MIC (S. aureus ATCC 29213; ATCC29213, Table 2): 0.12 µg/mL (≈ 0.275 µM); MIC ([1]; ATCC12228, Table 1): 0.25 µg/mL (≈ 0.574 µM); MIC ([1]; ATCC12228, Table 2): 0.25 µg/mL (≈ 0.574 µM); MIC (S. pneumoniae ATCC 6301; [8]): 0.125 µg/mL (≈ 0.287 µM); MIC (S. pneumoniae ATCC 6301; [9]): 0.12 µg/mL (≈ 0.275 µM); MIC (E. faecalis ATCC 29212; ATCC29212, Table 1): 16 µg/mL (≈ 36.7 µM); MIC (E. faecalis ATCC 29212; ATCC29212, Table 2): 16 µg/mL (≈ 36.7 µM); MIC (E. faecium CT-26; CT26, Table 1): 64 µg/mL (≈ 147 µM); MIC (E. faecium CT-26; CT26, Table 2): 64 µg/mL (≈ 147 µM); MIC [2]: 1 µg/mL (≈ 2.29 µM); MIC (H. influenzae ATCC 49766): 8 µg/mL (≈ 18.4 µM)
Oc1cccc2cccnc12 [Compound 10, 8-hydroxyquinoline] | 1 | 2 | 2 | 32 | 4 | 0.387 |  | 
Oc1cccc2cccnc12 [Compound 50, 8-hydroxyquinoline] | 2 | 2 | 2 | 4 | 4 | 0.387 |  | 
Oc1cccc2cccnc12 [Compound 51, 8-hydroxyquinoline] | 2 | 1 |  | 8 | 2 | 0.387 |  | 
Oc1cccc2cccnc12 [Compound 55, 8-hydroxyquinoline] | 2 | 1 | 2 | 4 | 2 | 0.775 |  | MIC M. catarrhalis ATCC 25238 [2]: 4 micrograms per ml
Oc1cccc2cccnc12 [Compound 65, 8-hydroxyquinoline] | 2 | 2 | 2 | 16 | 4 | 0.775 |  | MIC M. catarrhalis ATCC 25238 [2]: 4 micrograms per ml
Oc1cccc2cccnc12 [Compound 72, 8-hydroxyquinoline] | 4 | 2 | 4 | 64 | 4 | 0.775 |  | 
Oc1cccc2cccnc12 [Compound 75, 8-hydroxyquinoline] | 2 | 1 | 2 | 64 | 4 | 0.775 |  | 
CC[C@@H](CO)NCCN[C@@H](CC)CO [Ethambutol] |  |  |  |  |  |  | < 1 | 
CCc1cc(C(N)=S)ccn1 [Ethionamide] |  |  |  |  |  |  | 1 (≈ 6.02 µM) | 
OC(Cn1cncn1)(Cn1cncn1)c1ccc(F)cc1F [Fluconazole, reference compound] |  |  |  |  |  |  |  | MIC [3]: 3 µg/mL (≈ 9.8 µM); MIC [4]: 2.5 µg/mL (≈ 8.16 µM); MIC [5]: 16 µg/mL (≈ 52.2 µM); MIC [6]: > 64 µg/mL; MIC [7]: 16 µg/mL (≈ 52.2 µM)
C[C@@H](O)[C@H]1C(=O)N2C(C(=O)O)=C(SCCN=CN)C[C@H]12 [Imipenem, reference compound] |  |  |  |  |  |  |  | MIC (S. aureus ATCC 29213; ATCC29213, Table 1): 0.125 µg/mL (≈ 0.418 µM); MIC (S. aureus ATCC 29213; ATCC29213, Table 2): 0.12 µg/mL (≈ 0.401 µM); MIC ([1]; ATCC12228, Table 1): 0.125 µg/mL (≈ 0.418 µM); MIC ([1]; ATCC12228, Table 2): 0.12 µg/mL (≈ 0.401 µM); MIC (S. pneumoniae ATCC 6301; [8]): 0.125 µg/mL (≈ 0.418 µM); MIC (S. pneumoniae ATCC 6301; [9]): < 0.125 µg/mL; MIC (E. faecalis ATCC 29212; ATCC29212, Table 1): 1 µg/mL (≈ 3.34 µM); MIC (E. faecalis ATCC 29212; ATCC29212, Table 2): 1 µg/mL (≈ 3.34 µM); MIC (E. faecium CT-26; CT26, Table 1): 64 µg/mL (≈ 214 µM); MIC (E. faecium CT-26; CT26, Table 2): 64 µg/mL (≈ 214 µM); MIC [2]: 0.125 µg/mL (≈ 0.418 µM); MIC (H. influenzae ATCC 49766): 2 µg/mL (≈ 6.68 µM)
NNC(=O)c1ccncc1 [Isoniazid (INH), Isoniazid] |  |  |  |  |  |  | < 0.062 | 
NC[C@H]1O[C@H](O[C@H]2[C@H](O)[C@@H](O[C@H]3O[C@H](CO)[C@@H](O)[C@H](N)[C@H]3O)[C@H](N)C[C@@H]2N)[C@H](O)[C@@H](O)[C@@H]1O [Kanamycin] |  |  |  |  |  |  | < 2 | 
CC1COc2c(N3CCN(C)CC3)c(F)cc3c(=O)c(C(=O)O)cn1c23 (stereo not drawn) [Ofloxacin] |  |  |  |  |  |  | 4 (≈ 11.1 µM) | 
CC1(C)S[C@@H]2[C@H](NC(=O)Cc3ccccc3)C(=O)N2[C@H]1C(=O)O [Pen G, reference compound] | 0.5 | 16 | 0.125 | 1 | 32 |  |  | MIC S. aureus ATCC 29213 (S. aureus ATCC 29213; Table 2): 0.5 micrograms per ml; MIC S. epidermidis ATCC 12228 ([1]; Table 2): 16 micrograms per ml; MIC S. pneumonia ATCC 6301 (S. pneumoniae ATCC 6301; Table 2): <0.125 micrograms per ml; MIC E. faecalis ATCC 29212 (E. faecalis ATCC 29212; Table 2): 1 micrograms per ml; MIC E. faecium CT-26 (E. faecium CT-26; Table 2): 32 micrograms per ml; MIC M. catarrhalis ATCC 25238 [2]: 0.125 micrograms per ml; MIC H. influenzae ATCC 49766 (H. influenzae ATCC 49766): 0.12 micrograms per ml
CO[C@H]1/C=C/O[C@@]2(C)Oc3c(C)c(O)c4c(O)c(c(/C=N/N5CCN(C)CC5)c(O)c4c3C2=O)NC(=O)/C(C)=C\C=C\[C@H](C)[C@H](O)[C@@H](C)[C@@H](O)[C@@H](C)[C@H](OC(C)=O)[C@@H]1C [Rifampicin] |  |  |  |  |  |  | < 0.125 | 
[H]/N=C(/N)N[C@H]1[C@H](O)[C@@H](O)[C@H](O[C@@H]2O[C@@H](C)[C@](O)(C=O)[C@H]2O[C@@H]2O[C@@H](CO)[C@H](O)[C@@H](O)[C@@H]2NC)[C@@H](N/C(N)=N\[H])[C@@H]1O [Streptomycin] |  |  |  |  |  |  | < 2 | 
N[C@@H]1CON=C1O [cycloserine] |  |  |  |  |  |  | 8 (≈ 78.4 µM) | 
Nc1ccc(C(=O)O)c(O)c1 [p-aminosalicylate] |  |  |  |  |  | <0.25 |  | 
